Experimental data reported in ChEMBL document CHEMBL4393679, “Structure-Guided Drug Design of 6-Substituted Adenosine Analogues as Potent Inhibitors of Mycobacterium tuberculosis Adenosine Kinase” (J Med Chem, 2019).
The source made the active and inactive calls. No cut-off for these calls is given here.

How the values were obtained:
[1] = target: Adenosine kinase (Mycobacterium tuberculosis (strain ATCC 25618 / H37Rv)) (UniProt P9WID5); test: Competitive-inhibition of wild-type N-terminal TEV cleavage site-fused/His-tagged Mycobacterium tuberculosis H37Rv adenosine kinase expressed in Escherichia coli BL21 (DE3) using varying levels of adenosine as substrate in presence of ATP and PEP by pyruvate kinase-lactate dehydrogenase-coupled UV-vis spectrophotometric based Cheng-Prusoff equation analysis
[2] = Toxicity in ND4 Swiss Webster mouse at 10 mg/kg, po administered as single dose via gavage; assay type: organism-based; settings: in vivo
[3] = Toxicity in ND4 Swiss Webster mouse at 50 to 200 mg/kg, po administered once daily via gavage for 3 days measured twice daily during compound dosing; assay type: organism-based; settings: in vivo, 72 h
[4] = Toxicity in ND4 Swiss Webster mouse assessed as change in body weight at 50 to 200 mg/kg, po administered once daily via gavage for 3 days measured twice daily during compound dosing; assay type: organism-based; settings: in vivo, 72 h
[5] = target: Adenosine kinase (Mycobacterium tuberculosis (strain ATCC 25618 / H37Rv)) (UniProt P9WID5); test: Inhibition of wild-type N-terminal TEV cleavage site-fused/His-tagged Mycobacterium tuberculosis H37Rv adenosine kinase expressed in Escherichia coli BL21 (DE3) at 12.5 uM using adenosine as substrate in presence of ATP and PEP by pyruvate kinase-lactate dehydrogenase coupled UV-vis spectrophotometric method relative to control

Sequence of Adenosine kinase (Mycobacterium tuberculosis (strain ATCC 25618 / H37Rv)) (P9WID5 2-324 limits assumed): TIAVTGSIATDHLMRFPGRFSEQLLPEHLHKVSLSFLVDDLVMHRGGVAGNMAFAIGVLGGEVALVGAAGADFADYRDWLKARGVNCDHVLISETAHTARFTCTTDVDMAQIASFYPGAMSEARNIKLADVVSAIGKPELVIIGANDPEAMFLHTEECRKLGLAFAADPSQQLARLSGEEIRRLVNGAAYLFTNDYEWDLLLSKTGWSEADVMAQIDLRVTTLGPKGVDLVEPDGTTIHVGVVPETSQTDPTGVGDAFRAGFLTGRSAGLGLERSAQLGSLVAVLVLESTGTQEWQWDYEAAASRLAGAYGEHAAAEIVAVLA

Compound | inhibition [1] | Activity [2] | Activity [3] | Activity [4] | inhibition [5] [%]
OC[C@H]1O[C@@H](n2cnc3c(N4CCN(c5ccc(-c6ccccc6)cc5)CC4)ncnc32)[C@H](O)[C@@H]1O | Active | Non-Toxic | Non-Toxic | Non-Toxic | –
Cc1ccc(S(=O)(=O)NC[C@H]2O[C@@H](n3cnc4c(N5CCN(c6ccc(C(F)(F)F)cc6)CC5)ncnc43)[C@H](O)[C@@H]2O)cc1 | – | – | – | – | 53
